According to the NIST ThermoML archive (doi:10.1021/je200373q):
Numbers after ± are expanded uncertainties.

Assay: xn = mol fraction of the nth substance listed
Conditions: 101 kPa, Liquid, Vibrating tube method

CCCCC [pentane] + CCCCCCCC
mass density [kg/m3]
Conditions | x1 = 0.1002 | x1 = 0.2008 | x1 = 0.3023 | x1 = 0.4019 | x1 = 0.5001 | x1 = 0.5982 | x1 = 0.7022 | x1 = 0.8003 | x1 = 0.8991
278.15 K | 709.35 ± 0.31 | 704.52 ± 0.33 | 698.24 ± 0.35 | 691.87 ± 0.36 | 685.19 ± 0.38 | 678 ± 0.4 | 669.63 ± 0.42 | 660.99 ± 0.45 | 651.39 ± 0.46
283.15 K | 705.34 ± 0.31 | 700.46 ± 0.33 | 694.11 ± 0.36 | 687.66 ± 0.37 | 680.91 ± 0.38 | 673.65 ± 0.4 | 665.18 ± 0.42 | 656.45 ± 0.45 | 646.73 ± 0.47
288.15 K | 701.31 ± 0.32 | 696.38 ± 0.34 | 689.94 ± 0.36 | 683.43 ± 0.37 | 676.6 ± 0.38 | 669.26 ± 0.4 | 660.68 ± 0.43 | 651.85 ± 0.46 | 642.04 ± 0.47
293.15 K | 697.26 ± 0.32 | 692.29 ± 0.34 | 685.74 ± 0.36 | 679.16 ± 0.37 | 672.26 ± 0.39 | 664.83 ± 0.41 | 656.15 ± 0.43 | 647.21 ± 0.46 | 637.29 ± 0.48
298.15 K | 693.19 ± 0.32 | 688.16 ± 0.34 | 681.52 ± 0.36 | 674.87 ± 0.37 | 667.88 ± 0.39 | 660.37 ± 0.41 | 651.58 ± 0.44 | 642.52 ± 0.46 | 632.49 ± 0.48
303.15 K | 689.09 ± 0.32 | 684.01 ± 0.34 | 677.28 ± 0.37 | 670.54 ± 0.38 | 663.47 ± 0.39 | 655.87 ± 0.41 | 646.96 ± 0.44 | 637.79 ± 0.47 | 627.64 ± 0.49
308.15 K | 684.97 ± 0.32 | 679.84 ± 0.34 | 673 ± 0.37 | 666.19 ± 0.38 | 659.03 ± 0.39 | 651.33 ± 0.42 | 642.31 ± 0.44 | 633 ± 0.47 | 622.72 ± 0.49
313.15 K | 680.83 ± 0.32 | 675.63 ± 0.35 | 668.7 ± 0.37 | 661.8 ± 0.38 | 654.59 ± 0.4 | 646.75 ± 0.42 | 637.61 ± 0.45 | 628.16 ± 0.48 | 617.96 ± 0.49
318.16 K | 676.64 ± 0.33 | 671.38 ± 0.35 | 664.36 ± 0.38 | 657.38 ± 0.38 | 650.06 ± 0.4 | 642.12 ± 0.43 | 632.85 ± 0.45 | 623.27 ± 0.47 | –
323.16 K | 672.43 ± 0.33 | 667.11 ± 0.35 | 659.99 ± 0.38 | 652.92 ± 0.39 | 645.5 ± 0.41 | 637.45 ± 0.43 | 628.04 ± 0.44 | – | –
328.16 K | 668.2 ± 0.33 | 662.81 ± 0.36 | 655.59 ± 0.38 | 648.42 ± 0.39 | 640.9 ± 0.41 | 632.73 ± 0.42 | – | – | –
333.15 K | 663.94 ± 0.33 | 658.48 ± 0.36 | 651.16 ± 0.4 | – | – | – | – | – | –
338.15 K | 659.63 ± 0.34 | 654.1 ± 0.36 | 646.68 ± 0.39 | – | – | – | – | – | –
343.15 K | 655.28 ± 0.34 | 649.68 ± 0.36 | 642.13 ± 0.39 | – | – | – | – | – | –
348.15 K | 650.9 ± 0.34 | 645.21 ± 0.37 | 637.57 ± 0.4 | – | – | – | – | – | –
353.15 K | 646.47 ± 0.34 | 640.7 ± 0.37 | 632.94 ± 0.4 | – | – | – | – | – | –
358.15 K | 642 ± 0.35 | 636.15 ± 0.37 | 628.27 ± 0.41 | – | – | – | – | – | –
363.15 K | 637.48 ± 0.35 | 631.54 ± 0.38 | 623.54 ± 0.41 | – | – | – | – | – | –

CCCCC [pentane] + CCCCCCCCC
mass density [kg/m3]
Conditions | x1 = 0.1034 | x1 = 0.205 | x1 = 0.3028 | x1 = 0.4006 | x1 = 0.5016 | x1 = 0.5988 | x1 = 0.6992 | x1 = 0.7993 | x1 = 0.8993
273.15 K | 727.17 ± 0.34 | 721.15 ± 0.35 | 714.81 ± 0.42 | 707.86 ± 0.39 | 700 ± 0.41 | 691.84 ± 0.44 | 682.27 ± 0.46 | 672.39 ± 0.52 | 659.26 ± 0.58
278.15 K | 723.31 ± 0.34 | 717.24 ± 0.35 | 710.84 ± 0.37 | 703.82 ± 0.39 | 695.88 ± 0.41 | 687.64 ± 0.44 | 677.96 ± 0.47 | 667.97 ± 0.53 | 654.69 ± 0.59
283.15 K | 719.43 ± 0.34 | 713.31 ± 0.35 | 706.84 ± 0.37 | 699.75 ± 0.39 | 691.73 ± 0.41 | 683.4 ± 0.44 | 673.62 ± 0.47 | 663.51 ± 0.53 | 650.07 ± 0.6
288.15 K | 715.53 ± 0.35 | 709.35 ± 0.35 | 702.82 ± 0.37 | 695.66 ± 0.39 | 687.56 ± 0.42 | 679.14 ± 0.45 | 669.25 ± 0.47 | 659.01 ± 0.54 | 645.41 ± 0.6
293.15 K | 711.62 ± 0.35 | 705.38 ± 0.36 | 698.79 ± 0.38 | 691.54 ± 0.4 | 683.36 ± 0.42 | 674.84 ± 0.45 | 664.84 ± 0.48 | 654.47 ± 0.55 | 640.71 ± 0.61
298.15 K | 707.69 ± 0.35 | 701.39 ± 0.36 | 694.73 ± 0.38 | 687.41 ± 0.4 | 679.13 ± 0.42 | 670.52 ± 0.46 | 660.39 ± 0.48 | 649.88 ± 0.55 | 635.96 ± 0.61
303.15 K | 703.75 ± 0.35 | 697.38 ± 0.36 | 690.65 ± 0.38 | 683.24 ± 0.4 | 674.87 ± 0.43 | 666.16 ± 0.46 | 655.91 ± 0.49 | 645.26 ± 0.56 | 631.15 ± 0.62
308.15 K | 699.78 ± 0.35 | 693.35 ± 0.36 | 686.54 ± 0.38 | 679.05 ± 0.41 | 670.58 ± 0.43 | 661.76 ± 0.46 | 651.39 ± 0.49 | 640.58 ± 0.56 | 626.28 ± 0.63
313.15 K | 695.79 ± 0.36 | 689.3 ± 0.37 | 682.41 ± 0.39 | 674.83 ± 0.41 | 666.26 ± 0.43 | 657.33 ± 0.47 | 646.82 ± 0.5 | 635.85 ± 0.57 | 621.36 ± 0.64
318.15 K | 691.78 ± 0.36 | 685.21 ± 0.37 | 678.25 ± 0.39 | 670.58 ± 0.41 | 661.9 ± 0.44 | 652.86 ± 0.47 | 642.21 ± 0.5 | 631.07 ± 0.58 | 616.37 ± 0.64
323.15 K | 687.74 ± 0.36 | 681.1 ± 0.37 | 674.06 ± 0.39 | 666.29 ± 0.42 | 657.51 ± 0.44 | 648.34 ± 0.48 | 637.54 ± 0.51 | 626.24 ± 0.52 | –
328.15 K | 683.68 ± 0.36 | 676.97 ± 0.37 | 669.83 ± 0.4 | 661.97 ± 0.42 | 653.07 ± 0.45 | 643.78 ± 0.48 | 632.82 ± 0.52 | 621.34 ± 0.53 | –
333.15 K | 679.6 ± 0.37 | 672.8 ± 0.38 | 665.58 ± 0.4 | 657.61 ± 0.43 | 648.6 ± 0.45 | 639.17 ± 0.49 | 628.05 ± 0.52 | 616.38 ± 0.53 | –
338.15 K | 675.48 ± 0.37 | 668.6 ± 0.38 | 661.28 ± 0.4 | 653.21 ± 0.43 | 644.08 ± 0.46 | 634.51 ± 0.47 | – | – | –
343.15 K | 671.34 ± 0.37 | 664.37 ± 0.38 | 656.96 ± 0.41 | 648.78 ± 0.42 | – | – | – | – | –
348.15 K | 667.16 ± 0.38 | 660.1 ± 0.39 | 652.59 ± 0.41 | 644.3 ± 0.43 | – | – | – | – | –
353.15 K | 662.95 ± 0.38 | 655.79 ± 0.39 | 648.19 ± 0.42 | 639.79 ± 0.43 | – | – | – | – | –
358.15 K | 658.7 ± 0.38 | 651.45 ± 0.39 | 643.74 ± 0.41 | – | – | – | – | – | –
363.15 K | 654.42 ± 0.39 | 647.07 ± 0.4 | 639.25 ± 0.41 | – | – | – | – | – | –
